Assay [1] deals with ATP-dependent RNA helicase DDX3X (Homo sapiens) (UniProt O00571). Put plainly: Inhibition of human recombinant full length DDX3X helicase activity expressed in Escherichia coli using dsRNA as substrate measured after 40 mins by FRET assay.
Assay [2] concerns Huh-7. Kind of assay: Cytotoxicity against human Huh-7 cells incubated for 3 days by MTT assay. The assay is classed as functional. As to conditions: Huh-7, 72 h, time 3 day.
The test system of assay [3] is Huh-7. Put plainly: Cytotoxicity against human Huh-7 cells incubated for 72 hrs by Cell Titer-Glo luminescence assay. The assay is classed as functional. For orientation: In ATP-based viability assays light output follows the ATP content of the culture.
Another assay has as its system West Nile virus. Kind of assay: Antiviral activity against WNV infected in human Huh-7 cells preincubated with cells for 1 hr and measured after 4 days by plaque reduction assay. The class given is functional, organism-based.
Another assay concerns dengue virus type 2. Kind of assay: Antiviral activity against DENV2 New Guinea C strain infected in human Huh-7 cells measured after 72 hrs by immunodetection assay. The class given is functional, organism-based. As to conditions: Huh-7, 72 h.
Assay [4] concerns the target T1, ATP-dependent RNA helicase DDX1 (Homo sapiens) (UniProt Q92499).
T1 sequence (whole entry): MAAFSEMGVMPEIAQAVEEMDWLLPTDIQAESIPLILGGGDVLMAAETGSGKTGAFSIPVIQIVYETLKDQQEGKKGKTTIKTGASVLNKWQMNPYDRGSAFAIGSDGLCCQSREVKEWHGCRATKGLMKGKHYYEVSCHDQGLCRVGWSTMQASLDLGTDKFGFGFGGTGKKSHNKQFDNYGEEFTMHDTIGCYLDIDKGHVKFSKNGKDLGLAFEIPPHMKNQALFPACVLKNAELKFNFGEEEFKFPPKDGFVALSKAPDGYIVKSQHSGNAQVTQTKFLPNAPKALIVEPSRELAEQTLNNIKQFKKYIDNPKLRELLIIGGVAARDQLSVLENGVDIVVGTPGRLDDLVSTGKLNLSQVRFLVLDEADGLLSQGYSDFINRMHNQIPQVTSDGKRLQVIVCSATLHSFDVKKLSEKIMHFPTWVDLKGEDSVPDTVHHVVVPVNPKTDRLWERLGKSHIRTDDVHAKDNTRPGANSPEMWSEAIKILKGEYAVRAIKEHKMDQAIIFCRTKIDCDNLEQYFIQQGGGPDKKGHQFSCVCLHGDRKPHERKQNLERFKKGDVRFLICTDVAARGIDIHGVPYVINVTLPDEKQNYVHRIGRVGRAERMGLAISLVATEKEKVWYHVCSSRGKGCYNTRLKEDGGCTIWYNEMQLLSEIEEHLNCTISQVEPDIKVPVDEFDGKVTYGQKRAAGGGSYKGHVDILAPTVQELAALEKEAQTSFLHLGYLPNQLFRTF
Put plainly: Inhibition of human DDX1 helicase activity.

The next assay relates to Hepacivirus hominis. Put plainly: Inhibition of Hepatitis C virus NSP 3 helicase activity.
The species entered for assay [5] is Homo sapiens. Kind of assay: Inhibition of human recombinant full length DDX3X R262A mutant helicase activity using dsRNA as substrate measured after 40 mins by FRET assay.
Another assay relates to Arabidopsis thaliana. Put plainly: Inhibition of Arabidopsis thaliana STRS2 helicase activity.
For assay [6], the species on record is Homo sapiens. Put plainly: Inhibition of human recombinant full length DDX3X E256A mutant helicase activity using dsRNA as substrate measured after 40 mins by FRET assay.

The source made the active and inactive calls. No cut-off for these calls is given here.

Sequence of ATP-dependent RNA helicase DDX3X (Homo sapiens) (O00571 2-662 limits assumed): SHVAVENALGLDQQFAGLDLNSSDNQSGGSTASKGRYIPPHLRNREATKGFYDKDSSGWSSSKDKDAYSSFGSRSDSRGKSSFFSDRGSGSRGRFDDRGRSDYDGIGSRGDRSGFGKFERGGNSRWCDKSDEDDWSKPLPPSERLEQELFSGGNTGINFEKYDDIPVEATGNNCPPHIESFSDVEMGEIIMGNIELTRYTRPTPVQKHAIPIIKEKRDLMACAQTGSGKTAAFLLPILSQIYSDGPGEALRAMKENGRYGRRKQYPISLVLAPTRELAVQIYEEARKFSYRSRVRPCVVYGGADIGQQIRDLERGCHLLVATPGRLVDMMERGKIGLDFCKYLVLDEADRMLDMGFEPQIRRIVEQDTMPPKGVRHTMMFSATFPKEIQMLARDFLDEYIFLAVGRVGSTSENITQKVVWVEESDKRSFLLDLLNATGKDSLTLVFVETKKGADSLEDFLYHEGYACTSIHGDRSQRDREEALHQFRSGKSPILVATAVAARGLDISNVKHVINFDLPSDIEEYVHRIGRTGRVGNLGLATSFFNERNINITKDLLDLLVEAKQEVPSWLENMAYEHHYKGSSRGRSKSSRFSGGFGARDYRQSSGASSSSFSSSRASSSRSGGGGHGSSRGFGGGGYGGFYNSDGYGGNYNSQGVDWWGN

Take `CNC(=O)N1c2ccccc2CCc2ccccc21`: the ID50 entry in assay [1] is “inactive”.

`CC1CC(C)CN(S(=O)(=O)c2ccc(N)cc2)C1` (stereo not drawn): the ID50 result in assay [1] was “inactive”.

On to `Nc1ccc(Nc2nc3ccccc3[nH]2)cc1`, for which the ID50 entry in [1] is “inactive”.

For `CC(N)Cc1cn(Cc2ccccc2)c2ccccc12` (stereo not drawn), the ID50 entry in [1] was “inactive”.

For `COc1ccc(CN)cc1Cn1cccn1`, in assay [1], the ID50 result was “inactive”.

Take `NC[C@H](O)CN(c1ccccc1)c1ccccc1`: the CC50 is over 100 µM in the assay on Huh-7 [2] and 120 µM with Huh-7 [3]. Also, the ID50 in [1] was determined as 0.007 µM. Besides, the values for the IC50 in the assay with West Nile virus and in the assay with dengue virus type 2 were 0.9 µM and 12.6 µM, respectively.

With `NC[C@@H](O)CN(c1ccccc1)c1ccccc1`, the CC50 is over 100 µM with Huh-7 [2] and 79 µM in the assay on Huh-7 [3]. In addition, the ID50 was 58 µM in assay [4]; over 100 µM with Hepacivirus hominis; 0.004 µM in the assay filed under Homo sapiens [5]; over 100 µM in the assay on Arabidopsis thaliana; 0.006 µM in assay [1]; 0.3 µM in the assay listed under Homo sapiens [6]. Besides, the IC50 was 0.88 µM in the assay with West Nile virus and 6.3 µM in the assay on dengue virus type 2.

Consider `NCC(O)CN(c1ccccc1)c1ccccc1` (stereo not drawn), for which the ID50 in assay [1] is 0.7 µM.

`OC(C#CCN1CCCCC1)(c1ccccc1)c1ccccc1`: the ID50 result in assay [1] is “inactive”.

Consider `Nc1ccc(S(=O)(=O)c2ccccc2)cc1`, for which the ID50 in [1] was 200 µM.

Turning to `CCOC(=O)Nc1ccc2c(c1)N(C(=O)CCN(CC)CC)c1ccccc1CC2`, in assay [1], the ID50 result is “inactive”.

In the case of `NCC(O)CN(c1ccccc1)c1ccccc1` (racemic) [listing 1 of 2 here], the CC50 is over 100 µM with Huh-7 [2] and 100 µM in the assay on Huh-7 [3]. Besides, the IC50 was determined as 2.3 µM in the assay on West Nile virus and 7.9 µM in the assay with dengue virus type 2.

On to `CC(=O)N1c2ccccc2CCc2cc([N+](=O)[O-])ccc21`, for which the ID50 entry in assay [1] was “inactive”.

As for `NCC(O)CN(c1ccccc1)c1ccccc1` (racemic) [listing 2 of 2 here], the ID50 in assay [4] is 18 µM; in the assay with Hepacivirus hominis, over 100 µM; in the assay filed under Homo sapiens [5], 0.001 µM; in the assay on Arabidopsis thaliana, over 100 µM; in assay [1], 0.002 µM; in the assay listed under Homo sapiens [6] it was 73 µM.

As for `NC(=O)c1ncn([C@@H]2O[C@H](CO)[C@@H](O)[C@H]2O)n1` [RIBAVIRIN], the CC50 in the assay with Huh-7 [2] and with Huh-7 [3] was over 100 µM throughout. For the same compound, it took 91.5 µM to reach half-maximal inhibition in the assay on West Nile virus (IC50).

As a reminder, the CC50 is the concentration at which the toxic effect on the cells reaches its halfway point. Low readings indicate harm at low concentration, high ones better tolerance by the cells. The term IC50 denotes the concentration that gives 50% inhibition.

The record behind these values is ChEMBL document CHEMBL5230101, “Unique Domain for a Unique Target: Selective Inhibitors of Host Cell DDX3X to Fight Emerging Viruses” (J Med Chem, 2020).
